System: SCI model in rats
Assay: Spasticity: amplitude of the Hoffman reflex (H-reflex)
Format: in vivo, rat
Settings: for H % following CNO: 12 weeks
Source text: Taking advantage of the DREADD-expressing neural cells we transplanted, we asked if the therapeutic effects depend on the activity of the grafted cells.

C[N+]1([O-])CCN(C2=Nc3cc(Cl)ccc3Nc3ccccc32)CC1 [CNO]
H % following CNO injection (cell-transplanted rats (DREADD-expressing cells), 3 mg/kg, 6 weeks, 2 Hz): 47%±4.12% | decrease of H % following CNO injection (cell-transplanted rats, 3 mg/kg, 6 weeks, 1 Hz): not at 1 Hz | H % following CNO injection (cell-transplanted rats, 3 mg/kg, 6 weeks, 5 Hz): 28.21%±5.63% | H % following CNO (cell-transplanted rats, 1 Hz): 26.05%±5.64% | H % following CNO (cell-transplanted rats, 2 Hz): 17.57%±4.98% | H % following CNO (cell-transplanted rats, 5 Hz): 9.09%±1.52% | change of H % in response to CNO treatment (control animals: sham operation, SCI, SCI injected with medium): did not show any changes

— US20230340406A1, “METHODS AND COMPOSITIONS FOR PRODUCING STEM CELL DERIVED SPINAL GABA INHIBITORY NEURONS FOR USE IN TREATMENT OF SPINAL CORD INJURY” (BrainXell, Inc., priority 2020, published 2023)
